What all share (assay): inhibition of tumour cell growth, NCI panel, 48 h
Assay [1] concerns K-562 leukemia.
Assay [2] relates to NCI-H522 lung.
In assay [3] the test system is OVCAR-5 ovarian.
Assay [4] has as its system EKVX NSCLC.
The subject of assay [5] is SF-539 CNS.
Assay [6] concerns NCI-H226 lung.
Assay [7] deals with RXF 393 renal.
The subject of assay [8] is UO-31 renal.
The test system of assay [9] is CAKI-1 renal.
For assay [10], the system named is RPMI-8226 leukemia.
The subject of assay [11] is HT29 colon.
The subject of assay [12] is TK-10 renal.
Assay [13] relates to HS 578T breast.
The test system of assay [14] is MCF7 breast.
Assay [15] concerns OVCAR-3 ovarian.
The subject of assay [16] is SF-295 CNS.
Assay [17] concerns HCT-15 colon.
Assay [18] concerns MDA-MB-231 breast.
For assay [19], the system named is OVCAR-8 ovarian.
Assay [20] relates to MDA-N.

The record followed here is PubChem BioAssay (NCI).

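Test compounds were applied to cells in 96-well plates for 48 hours at 5 doses. TGI is the concentration that stops growth completely.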

Consider `COc1ccc(/C=C(\Cl)c2ccc(OC)c(OC)c2)cc1OC`, for which the TGI in assay [1], in assay [2], in [3], in assay [4], in assay [5] and in assay [6] was above 100 µM each time. Also, the TGI in assay [7], in [8], in assay [9], in [10], in assay [11] and in [12] was above 100 µM throughout. For the same compound, the TGI in assay [13], in assay [14], in [15], in assay [16], in [17] and in assay [18] was above 100 µM throughout. For the same compound, the TGI in [19] and in [20] was above 100 µM each time.
For the compound `Cc1c2ccncc2cc2c1sc1ccncc12`, the TGI in assay [1] was 21.5 µM; in assay [2] it was 9.09 µM; in assay [3], 19.7 µM; in assay [4], 15.5 µM; in [5], 17.6 µM; in assay [6], 5.18 µM. Further, the TGI in assay [7] amounted to 12.4 µM; in assay [8] it was 8.04 µM; in assay [9], 12.5 µM; in assay [10], 7.49 µM; in assay [11], 14.5 µM; in assay [12] it was 36 µM. For the same compound, the TGI in [13] turned out to be 20.4 µM; in [14], 3.56 µM; in assay [15], 27.7 µM; in assay [16], 9.59 µM; in assay [17], 14.4 µM; in [18] it was 21.9 µM. In addition, the TGI turned out to be 23.7 µM in assay [19] and 14.3 µM in assay [20].
Consider `CCOC(=O)c1ccc(C(=O)OCC)n1-c1cc2cc(c1)CSCc1cc(cc(-n3c(C(=O)OCC)ccc3C(=O)OCC)c1)CSC2`, for which the TGI in assay [1], in [2], in [3], in assay [4], in assay [5] and in assay [6] was above 10 µM each time. Besides, the TGI in assay [7], in assay [8], in assay [9], in [10], in assay [11] and in assay [12] was above 10 µM throughout. Also, the TGI in [13], in assay [14], in assay [15], in [16], in assay [17] and in assay [18] was above 10 µM throughout. Further, the TGI in assay [19] and in [20] was above 10 µM in each case.
For the compound `Cc1ccc(NCC2CC/C(=C\c3ccc(Cl)cc3)C2=O)cc1` (stereo not drawn), the TGI in assay [1] was above 19.8 µM; in assay [2] it was 15.8 µM; in assay [3], above 54.5 µM; in assay [4], above 100 µM; in assay [5] it was above 60.7 µM; in [6], above 100 µM. Also, the TGI in assay [7] was 31 µM; in [8] it was 60 µM; in assay [9] it was 21.7 µM; in assay [10] it was 6.96 µM; in [11], 49.1 µM; in assay [12] it was 40.6 µM. Moreover, the TGI is above 100 µM in assay [13]; 26.7 µM in assay [14]; 29.1 µM in assay [15]; above 100 µM in assay [16]; 9.41 µM in [17]; 28.4 µM in assay [18]. Also, the TGI in [19] is 36.1 µM; in assay [20], 26.4 µM.
Consider `CCOC(=O)c1nc2ccc(C(F)(F)F)cc2nc1NCc1ccc(Cl)c(Cl)c1`, for which the TGI in assay [1] was above 100 µM; in assay [2] it was 33.5 µM; in [3], above 100 µM; in assay [4], above 100 µM; in assay [5] it was above 100 µM; in assay [6], above 100 µM. The TGI in assay [7] was 81.5 µM; in assay [8], above 100 µM; in assay [9], 57.5 µM; in assay [10], above 100 µM; in assay [11], 90.9 µM; in assay [12], above 100 µM. For the same compound, the TGI was 80.7 µM in assay [13]; above 100 µM in assay [14]; 66.2 µM in [15]; 69.9 µM in assay [16]; above 100 µM in assay [17]; above 100 µM in assay [18]. Also, the TGI in assay [19] and in [20] was above 100 µM in each case.
Regarding `COC(=O)[C@H](Cc1ccccc1)NC(=O)NCCN(CCNC(=O)N[C@@H](Cc1ccccc1)C(=O)OC)C(=O)N[C@@H](Cc1ccccc1)C(=O)OC`, the TGI in [1] is 61 µM; in [2] it was 29.6 µM; in [3], 35.2 µM; in assay [4], above 61.7 µM; in [5], 47.1 µM; in [6], 34.6 µM. Further, the TGI is 31.9 µM in assay [7]; 45.5 µM in assay [8]; above 63.6 µM in assay [9]; 46.3 µM in assay [10]; 37.3 µM in assay [12]; 45.3 µM in assay [13]. The TGI in assay [14] is 61.8 µM; in assay [15], 39.7 µM; in [16] it was 35.3 µM; in assay [17] it was above 100 µM; in assay [18], 46.5 µM; in assay [19], 34.6 µM. Moreover, in [20], the TGI was 32.9 µM.
`COc1cc(OCc2ccc3nc(-c4ccccc4)c(N)nc3c2)cc(OC)c1OC`: the TGI is above 100 µM in assay [1]; 37.7 µM in [2]; 55.3 µM in assay [3]; 50.2 µM in assay [4]; 44.2 µM in assay [5]; 50.4 µM in assay [6]. Besides, the TGI in assay [7] was determined as 77 µM; in [8] it was 34.6 µM; in assay [9], 71.4 µM; in assay [10], 31.3 µM; in [12] it was 50.3 µM; in [13] it was 78.3 µM. The TGI is 56.8 µM in [14]; 42.1 µM in assay [15]; 68.7 µM in assay [16]; 39.7 µM in [17]; 68.9 µM in assay [18]; 72.3 µM in assay [19]. In assay [20], this compound gave a TGI of 28.8 µM.
